The text below walks through data of patent US9062045B2, “Triazolopyridine compounds” (Novartis AG, priority 2012, dated 2015).

For data set [1] the following is noted: cited from earlier work.
Data set [2] concerns GTL16 cells. Kind of data set: GTL16 cell viability assay (CellTiter Glo). The note with it: read-out: GTL-16 Proliferation IC50. (In general: ATP-based viability assays read luminescence as a measure of living cells.)
Description: GTL16 Cell Viability Assay:
GTL16 expresses high level of c-Met receptor tyrosine kinase due to the gene amplification.
GTL16 cells were seeded in DMEM medium with 10% FBS and 1% Pene. & Strep. at 5000 cells/well/90 μL in 96 well plate and incubated overnight for attachment at 37° C. in 5% CO2 incubator. 10-fold serials dilutions of compounds were added to the cell as 10 μL/well. The final assay volume was 100 μl/well. The assay plates were incubated at 37° C. in 5% CO2 incubator for 24 hours. […] The chemiluminescent light unit was read in Envision from Perkin Elmer. All the tests were run at triplicates. The IC50 was calculated using Spotfire software.
Data set [3] has as its target c-Met receptor tyrosine kinase, GST-c-MET (969-1390) (Homo sapiens (Human), UniProt P08581). The note with it: read-out: c-Met Biochem IC50.
Description: A number of compounds of the present invention were assayed in an antibody based kinase phosphorylation assay as follows.
The EPK kinase assay for c-Met receptor tyrosine kinase was developed, using the purified recombinant GST-fusion protein, containing the cytoplasmic domain of the enzyme.
The kinase assay is based on the LanthaScreen™ technology.
The kinase reactions were performed in 384 well microtiter plates in a total reaction volume of 10.05 μL. The assay plates were prepared with 0.05 μL per well of test compound in the appropriate test concentration, as described under “preparation of compound dilutions”. The reactions were started by combining 5 μL of ATP solution with 5 μL of enzyme-substrate mix (consisting of kinase and substrate). […] Subsequently 5 μL of detection mix (50 mM Tris/HCl, 2 mM DTT, 0.05% Tween20, 20 μM sodium orthovanadate, 1% BSA, 1 nM Tb-PY20 antibody) were added to the stopped reactions. After 45 minutes incubation in dark at room temperature, the plates were measured in a Perkinelmer Envision fluorescence reader.
Data set [4] can be described thus: hPDE3 assay ([3H]cAMP scintillation proximity assay). Format: biochemical, human. The note with it: Table 3-C; title says PDE3, head says c-Met Biochem IC50 [nM]. (In general: SPA uses beads or plates that emit light when radiolabelled molecules are held near them.)
The conditions of data set [5]: human liver S-9; cited from earlier work.
For data set [6] the following is noted: dog S-9 incubations; cited from earlier work.
For data set [7] the following is noted: patients treated with SGX523; cited from earlier work.
The conditions of data set [8]: monkey liver S-9; cited from earlier work.
In data set [9] the target is human platelet PDE3 (Homo sapiens (Human), UniProt Q14432). The data set can be described thus: hPDE3 assay ([3H]cAMP scintillation proximity assay). Format: biochemical. Conditions: human platelet PDE3. The text has this:
Here, compounds of formula I were screened for their ability to inhibit human PDE3 in the assay based on Amersham Pharmacia Biotech's Phosphodiesterase (PDE) [^3H]-adenosine 3′,5′ cyclic phosphate ([^3H]cAMP) Scintillation Proximity Assay (SPA). The assay is based on the hydrolysis of [^3H]cAMP, by human platelet PDE3, to [^3H]5′-adenoside monophosphate (5′-AMP). The [^3H]5′-AMP is specifically captured by yttrium silicate SPA beads in the presence of zinc sulphate.
• Optiplate and TopSeal-S (Can berra Packard) • Human platelet PDE3 (partially purified from human platelets)—a titration curve of human platelet PDE3 activity was performed to optimise the concentration of hPDE3 required in the assay. • Yttrium silicate SPA beads and [^3H]cAMP (Amersham) • Tris-Base, magnesium chloride, ethylenediaminetetraacetic acid (di-sodium salt), bovine serum albumin BSA and cAMP (Sigma) Solutions and Buffers: • Assay buffer: 7.56 g Tris-Base was dissolved in approximately 800 mL distilled water and the pH adjusted to 7.5 with 1 M hydrochloric acid. 10.3 mL 1 M magnesium chloride and 4.25 mL 0.5 M EDTA were added. The solution was made to 1 L with distilled water and stored at 4° C. On day of use 18 mL of the above solution was removed and 2 mL 5 mg/ml BSA were added thereto. • Enzyme buffer: 10 mM Tris-HCl at pH 7.5, 1 mM EDTA • Yttrium silicate SPA beads: 1 vial was reconstituted in 28 mL distilled water and stored at 4° C. Assay
The assay was performed in a final volume of 100 μL per well of an Optiplate (Canberra Packard). A 10 μL aliquot of the test compound dissolved in DMSO/distilled water was placed in a well of an Optiplate plate, followed by the addition of 80 μL ‘Assay mix’ (5.5 μL [^3H]cAMP and 88 μL “cold” cAMP were diluted to 8.8 mL using assay buffer). The reaction was started by adding 10 μL hPDE3 (50 μL stock hPDE3 solution was diluted 50 fold to 2.5 mL using enzyme buffer). The plate was incubated at room temperature for 30 min, the reaction was then terminated by the addition of 50 μL Yttrium silicate SPA beads (pre-warmed to room temperature) to all wells. […] The plate was sealed using TopSeal-S according to the manufacturer's instructions and counted using a Packard TopCount, each well being counted for 1 min. IC50 values were determined using non-linear regression.

The mark [10] stands for this setting: 2 μM ATP, 60 minutes at room temperature.

Structures are written as SMILES. Structures can show the parent of a compound that is named as a salt. Where two headings read alike, the source gives them in different places.

Sequence of human platelet PDE3 (Q14432 whole entry): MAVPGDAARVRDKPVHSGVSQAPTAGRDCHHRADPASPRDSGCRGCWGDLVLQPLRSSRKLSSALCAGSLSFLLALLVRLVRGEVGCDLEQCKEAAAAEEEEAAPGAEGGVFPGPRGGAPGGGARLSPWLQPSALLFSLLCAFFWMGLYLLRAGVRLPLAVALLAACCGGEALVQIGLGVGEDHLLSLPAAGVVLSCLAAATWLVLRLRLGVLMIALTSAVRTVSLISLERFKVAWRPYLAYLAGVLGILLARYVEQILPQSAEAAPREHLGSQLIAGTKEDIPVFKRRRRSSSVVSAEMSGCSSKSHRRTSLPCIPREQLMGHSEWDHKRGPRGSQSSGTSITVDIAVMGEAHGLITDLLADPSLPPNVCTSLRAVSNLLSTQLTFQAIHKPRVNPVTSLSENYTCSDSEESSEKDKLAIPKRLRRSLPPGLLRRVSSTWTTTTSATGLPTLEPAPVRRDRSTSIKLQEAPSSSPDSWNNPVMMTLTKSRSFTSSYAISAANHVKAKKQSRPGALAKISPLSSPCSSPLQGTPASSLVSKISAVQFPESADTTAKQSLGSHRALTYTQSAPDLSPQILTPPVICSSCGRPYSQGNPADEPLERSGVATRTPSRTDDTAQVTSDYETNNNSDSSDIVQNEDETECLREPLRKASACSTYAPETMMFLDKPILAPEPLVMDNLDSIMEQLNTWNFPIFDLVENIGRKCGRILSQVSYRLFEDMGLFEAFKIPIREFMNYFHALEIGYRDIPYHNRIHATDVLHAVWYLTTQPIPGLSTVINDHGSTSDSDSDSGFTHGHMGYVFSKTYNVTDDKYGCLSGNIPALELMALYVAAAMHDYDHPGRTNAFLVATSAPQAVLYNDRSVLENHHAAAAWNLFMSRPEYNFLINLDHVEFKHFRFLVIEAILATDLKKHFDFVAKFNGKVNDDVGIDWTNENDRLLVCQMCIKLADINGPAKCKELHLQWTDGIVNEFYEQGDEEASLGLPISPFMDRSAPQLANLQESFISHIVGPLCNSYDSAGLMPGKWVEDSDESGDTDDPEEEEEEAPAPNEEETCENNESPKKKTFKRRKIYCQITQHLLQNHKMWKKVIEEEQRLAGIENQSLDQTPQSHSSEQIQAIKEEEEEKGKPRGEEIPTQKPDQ
Sequence of c-Met receptor tyrosine kinase, GST-c-MET (969-1390) (P08581 969-1390): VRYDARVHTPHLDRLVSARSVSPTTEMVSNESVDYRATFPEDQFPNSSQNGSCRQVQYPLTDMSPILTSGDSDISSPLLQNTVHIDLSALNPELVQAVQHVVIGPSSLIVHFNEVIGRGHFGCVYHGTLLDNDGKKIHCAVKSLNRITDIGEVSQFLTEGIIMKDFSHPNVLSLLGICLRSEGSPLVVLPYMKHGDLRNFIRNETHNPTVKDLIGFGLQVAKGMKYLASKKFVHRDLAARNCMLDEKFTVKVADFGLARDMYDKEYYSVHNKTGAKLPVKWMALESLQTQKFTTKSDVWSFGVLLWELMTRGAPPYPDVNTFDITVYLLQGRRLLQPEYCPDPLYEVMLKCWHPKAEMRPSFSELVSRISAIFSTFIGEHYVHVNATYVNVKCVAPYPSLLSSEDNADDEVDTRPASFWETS

For the compound `Cn1cc(-c2ccc3nnc(Sc4ccc5[nH]c(=O)ccc5c4)n3n2)cn1` [2-quinolinone-SGX523 metabolite, 6-(6-(1-methyl-1H-pyrazol-4-yl)-[1,2,4]triazolo[4,3-b]pyridazin-3-ylthio)quinolin-2(1H)-one], in [1], the “solubility compared with SGX523” value is reported as “markedly less-soluble”.
Take `Cn1cc(-c2ccc3nnc(C(F)(F)c4ccc5ncccc5c4)n3n2)cn1` [Comparator No. 1 (JNJ-38877605), 6-{Difluoro-[6-(1-methyl-1H-pyrazol-4-yl)-[1,2,4]triazolo[4,3-b]pyridazin-3-yl]-methyl}-quinoline, reference compound]: the IC50 in [2] (GTL16 cells, 24 hours) is below 10 nM; in data set [3] (setting [10]), 3 nM; in [4], 4 nM.
Take `C/C(=N\OCCO)c1ccc2nnc(Cc3ccc4ncc(N5CCN(C)CC5)cc4c3)n2n1` [Comparator No. 2, 1-{3-[3-(4-Methyl-piperazin-1-yl)-quinolin-6-ylmethyl]-[1,2,4]triazolo[4,3-b]pyridazin-6-yl}-ethanone O-(2-hydroxy-ethyl)-oxime]: in data set [4], the IC50 is 4 nM.
`Cn1cc(-c2ccc3nnc(Sc4ccc5ncccc5c4)n3n2)cn1` [Comparator No. 4 (SGX523), 6-[6-(1-Methyl-1H-pyrazol-4-yl)-[1,2,4]triazolo[4,3-b]pyridazin-3-ylsulfanyl]-quinoline]: the figures for the “generation of metabolite M11” value in [5], in [6] and in [8] were “generated”, “absent” and “generated”, respectively. Besides, the “renal function of patients” value in data set [7] is recorded as “compromised renal function”.
On to `C[C@@H]1CN(c2cnc3ccc(Sc4nnc5ccc(-c6cnn(C)c6)cn45)cc3c2)C[C@H](C)N1` [Example 42, 3-((3S,5R)-3,5-Dimethylpiperazin-1-yl)-6-(6-(1-methyl-1H-pyrazol-4-yl)-[1,2,4]triazolo[4,3-a]pyridin-3-ylthio)quinoline], for which the IC50 is 29000 nM in data set [9]; 0.6 nM in data set [2] (GTL16 cells, 24 hours); 4 nM in data set [3] (setting [10]).
As for `Cn1cc(-c2cc(F)c3nnc(Sc4ccc5ncc(N)cc5c4)n3c2)cn1` [Example 55, 6-(8-Fluoro-6-(1-methyl-1H-pyrazol-4-yl)-[1,2,4]triazolo[4,3-a]pyridin-3-ylthio)quinolin-3-amine hydrochloride], the figures for the IC50 in [9], in [2] and in [3] were above 30000 nM, 1 nM and […], respectively.
For `Cn1cc(-c2ccc3nnc(Sc4ccc5ncc(N)cc5c4)n3c2)cn1` [Example 56, 6-(6-(1-Methyl-1H-pyrazol-4-yl)-[1,2,4]triazolo[4,3-a]pyridin-3-ylthio)quinolin-3-amine hydrochloride] the same measures were 17000 nM, 33 nM and 13 nM.
As to `c1cc2ncc(N3CCOCC3)cc2cc1Sc1nnc2ccc(-c3cn[nH]c3)cn12` [Example 57, 4-(6-(6-(1H-pyrazol-4-yl)-[1,2,4]triazolo[4,3-a]pyridin-3-ylthio)quinolin-3-yl)morpholine], the IC50 in data set [9] stood at 10000 nM; in data set [2] (GTL16 cells, 24 hours), 10 nM; in data set [3] it was […].
Regarding `Fc1cc(-c2cn[nH]c2)cn2c(Sc3ccc4ncc(N5CCOCC5)cc4c3)nnc12` [Example 58, 4-(6-(8-Fluoro-6-(1H-pyrazol-4-yl)-[1,2,4]triazolo[4,3-a]pyridin-3-ylthio)quinolin-3-yl)morpholine], the IC50 in data set [9] is 13000 nM; in data set [2] (GTL16 cells, 24 hours) it was 8 nM; in data set [3] (setting [10]), […].
For `C/C(=N\O)c1ccc2nnc(Sc3ccc4ncc(CN5CCOCC5)cc4c3)n2c1` [Example 79, (E)-1-(3-(3-(Morpholin-4-yl-methyl)quinolin-6-ylthio)-[1,2,4]triazolo[4,3-a]pyridin-6-yl)ethanone oxime] the same measures were above 30000 nM, 1140 nM and 83 nM.
`Cn1cc(-c2ccc3nnc(Sc4ccc5ncccc5c4)n3c2)cn1` [Reference Example No. 63, 6-(6-(1-methyl-1H-pyrazol-4-yl)-[1,2,4]triazolo[4,3-a]pyridin-3-ylthio)quinoline]: the IC50 in data set [4] is 15 nM.
Turning to `Cn1cc(-c2cnc3ccc(Sc4nnc5ccc(-c6cnn(CCO)c6)cn45)cc3c2)cn1` [Reference Example No. 73, 2-(4-(3-(3-(1-methyl-1H-pyrazol-4-yl)quinolin-6-ylthio)-[1,2,4]triazolo[4,3-a]pyridin-6-yl)-1H-pyrazol-1-yl)ethanol, reference compound], the values for the IC50 in data set [3] and in data set [4] were 5 nM and 7 nM, respectively.
